“And” between values parts separate entries of the source, which are not always exact repeats. Equal entries are not always repeated. Where two headings read alike, the source gives them in different places.
Experiments:
Cytotoxicity assay = assay type: cell-based; settings: African green monkey, Vero E6 cells
[1] = cited from earlier work
[2] = human, uptake of 612 mg, extrapolated from 0.07% of dose in rat lung
SARS-CoV-1 [3] = settings: mouse; cited from earlier work
SARS-CoV-1 [4] = settings: read-out: EC50 against SARS-CoV-1; cited from earlier work
dengue virus type 2 = settings: cited from earlier work
SARS-CoV-2 [5] = settings: read-out: EC50 against SARS-CoV-2; in vitro; cited from earlier work
[6] = test system: SARS-CoV-2 (clinically isolated strain IHUMI-3); assay type: cell-based; settings: for Selectivity index (SI), ratio CC50/EC50: Vero E6 cells
feline coronavirus = settings: read-out: EC50 against feline coronavirus; cited from earlier work
SARS-CoV-2 [7] = settings: 10 μM, Vero E6 cells infected by SARS-CoV-2; cited from earlier work
SARS-CoV-2 [8] = settings: read-out: EC50 against SARS-CoV-2; Vero E6 cells, MOI of 0.2; cited from earlier work
[9] = cited from earlier work; remark: listed apart in the source
[10] = can go up; cited from earlier work
Ebola virus [11] = settings: read-out: EC50 against Ebola virus; cited from earlier work
Ebola virus [12] = settings: mouse, in vivo; cited from earlier work
[13] = cited from earlier work; remark: listed apart in the source
[14] = at 6 h; cited from earlier work
[15] = amodiaquine given at 612 mg day
[16] = rats, single oral dose of 2 mg (10 mg/kg)

Q: Which results are given for `CCNCc1cc(Nc2ccnc3cc(Cl)ccc23)ccc1O` [Desethylamodiaquine]?
A: CC50 at 48 h (Cytotoxicity assay): 86.1 ± 10.5 µM; Plasma concentration of desethylamodiaquine [1, 15]: 753 ng/ml and around 1.9 μM; t1/2 [1, 15]: 8.9 days

Q: With `CCN(CC)Cc1cc(Nc2ccnc3cc(Cl)ccc23)ccc1O` [Amodiaquine] as the compound, how does the “Amount that would be found in lungs” value [2] read?
A: 428 µg

Q: What about the “In vivo activity on SARS-CoV-1” value (SARS-CoV-1 [3]) of the same compound?
A: inactive

Q: What about the EC50 (SARS-CoV-1 [4]) of the same compound?
A: 2.5 µM

Q: And the EC50 (dengue virus type 2; read-out: EC50, dengue virus type 2 replication)?
A: 1.08 µM

Q: And the EC90 (dengue virus type 2; read-out: EC90, dengue virus type 2 replication)?
A: 2.69 µM

Q: With `C[C@H]1c2cccc(O)c2C(=O)C2=C(O)[C@]3(O)C(=O)C(C(N)=O)=C(O)[C@@H](N(C)C)[C@@H]3[C@@H](O)[C@@H]21` [doxycycline] as the compound, how does the EC50 (SARS-CoV-2 [5]) read?
A: 5.6 µM

Q: With Ferroquine as the compound, how does the EC90 ([6]; read-out: 90% effective concentration (EC90) against SARS-CoV-2) read?
A: 2.4 ± 0.9 µM

Q: What about the EC50 ([6]; read-out: Median effective concentration (EC50) against SARS-CoV-2) of the same compound?
A: 1.5 ± 0.3 µM

Q: And the EC50 (feline coronavirus)?
A: 2.9 µM

Q: What about the EC50 (SARS-CoV-1 [4]) of the same compound?
A: 1.4 µM

Q: What about the “Mean Cmax (maximum blood concentration)” value ([1]; oral uptake of 800 mg) of the same compound?
A: 155 ng/mL

Q: What about the “t1/2 (elimination half-life)” value ([1]; oral uptake of 800 mg) of the same compound?
A: 10.9 days

Q: And the Cmax ([1]; read-out: Mean Cmax (maximum blood concentration), oral uptake of 800 mg)?
A: ~600 nM

Q: For `CCCCN(CCCC)CC(O)c1cc(Cl)cc2c1-c1ccc(Cl)cc1/C2=C/c1ccc(Cl)cc1` (stereo not shown) [Lumefantrine], which “Selectivity index (SI), ratio CC50/EC50” value [6] is on record?
A: 4

Q: What about the CC50 at 48 h (Cytotoxicity assay) of the same compound?
A: 87.7 ± 11.9 µM

Q: And the Cmax ([1]; single oral dose 480 mg)?
A: 1100 nM

Q: With `Clc1ccc2c(N3CCN(CCCN4CCN(c5ccnc6cc(Cl)ccc56)CC4)CC3)ccnc2c1` [Piperaquine] as the compound, how does the “Selectivity index (SI), ratio CC50/EC50” value [6] read?
A: 2

Q: What about the CC50 at 48 h (Cytotoxicity assay) of the same compound?
A: 55 ± 4.8 µM

Q: For `OC(c1cc(C(F)(F)F)nc2c(C(F)(F)F)cccc12)C1CCCCN1` (stereo not shown) [Mefloquine], which “Inhibition of cytopathic effect” value (SARS-CoV-2 [7]) is on record?
A: inhibited completely

Q: What about the CC50 at 48 h (Cytotoxicity assay) of the same compound?
A: 14.4 ± 2.1 µM

Q: Which “Selectivity index (SI), ratio CC50/EC50” value [6] does the source give for `C[C@H]1[C@@H](O)O[C@@H]2O[C@@]3(C)CC[C@H]4[C@H](C)CC[C@@H]1[C@@]24OO3` [Dihydroartemisinin] here?
A: 3

Q: And the CC50 at 48 h (Cytotoxicity assay)?
A: 58.9 ± 7.4 µM

Q: For `CCN(CC)CCCC(C)Nc1ccnc2cc(Cl)ccc12` (stereo not shown) [Chloroquine], which EC50 (SARS-CoV-2 [8]) is on record?
A: 7.1 µM

Q: And the “Selectivity index (SI), ratio CC50/EC50” value [6]?
A: >47

Q: What about the Adverse events [9] of the same compound?
A: 56%

Q: What about the “In vivo activity on SARS-CoV-1” value (SARS-CoV-1 [3]) of the same compound?
A: inactive

Q: What about the CC50 at 48 h (Cytotoxicity assay) of the same compound?
A: > 100 µM

Q: What about the “Concentration in the lung” value [10] of the same compound?
A: up to 280 mg/kg

Q: And the EC50 (SARS-CoV-1 [4])?
A: 2.5 µM

Q: And the Plasma concentration ([1]; chloroquine 100 mg day, prophylaxis of malaria)?
A: 0.01–0.4 mg/l and 0.03–1.25 μM

Q: What does the source list for `COc1ccc2nc3cc(Cl)ccc3c(Nc3cc(CN4CCCC4)c(O)c(CN4CCCC4)c3)c2n1` [Pyronaridine]?
A: Selectivity index (SI), ratio CC50/EC50 [6]: 22; Adverse events [9]: around 38%; CC50 at 48 h (Cytotoxicity assay): 15.9 ± 1.6 µM; EC50 (Ebola virus [11]): 1.14 µM; Protection against Ebola virus infection (Ebola virus [12]): protected mice; Blood Cmax [13, 16]: 223 ng/mL; Lung Cmax [13, 16]: 36.4 µg/g; Lung Cmax relative to blood Cmax (more concentrated) [13, 16]: 165; t1/2 ([1]; 720 mg day, human): 33.5 days; Plasma concentration ([1]; 720 mg day, human, listed as Pyronaridine tetraphosphate): 271 ng/ml and around 0.3 μM

Q: What does the source list for `CCN(CCO)CCCC(C)Nc1ccnc2cc(Cl)ccc12` (stereo not shown) [Hydroxychloroquine]?
A: EC50 (SARS-CoV-2 [8]): 17.3 µM; Blood concentration [14]: around 0.3 μM; Lung concentration [14]: 7.8 µM; CC50 at 48 h (Cytotoxicity assay): 20.4 ± 1.4 µM; Cmax ([1]; oral uptake of 400 mg): 1220 nM

Q: With `C=C[C@H]1C[N@@]2CC[C@H]1C[C@H]2[C@H](O)c1ccnc2ccc(OC)cc12` [Quinine] as the compound, how does the CC50 at 48 h (Cytotoxicity assay) read?
A: > 100 µM

Q: And the Concentration lung/blood ratio ([13]; rat, intravenous dose of 10 mg/kg)?
A: 246

Q: And the “Blood Cmax” value ([1]; 600 mg single oral dose of quinine sulphate)?
A: around 3.5 mg/l

Q: And the Cmax ([1]; read-out: Blood Cmax, 600 mg single oral dose of quinine sulphate)?
A: ~8500 nM

From PMC7477610 (Travel Medicine and Infectious Disease, 2020)
